We go through 21 molecules from patent US9718808B2, “Inhibitors of the renal outer medullary potassium channel” (Merck Sharp & Dohme Corp., priority 2014, dated 2017).

Sequence of ROMK (Kir1.1) channel (P48048 whole entry): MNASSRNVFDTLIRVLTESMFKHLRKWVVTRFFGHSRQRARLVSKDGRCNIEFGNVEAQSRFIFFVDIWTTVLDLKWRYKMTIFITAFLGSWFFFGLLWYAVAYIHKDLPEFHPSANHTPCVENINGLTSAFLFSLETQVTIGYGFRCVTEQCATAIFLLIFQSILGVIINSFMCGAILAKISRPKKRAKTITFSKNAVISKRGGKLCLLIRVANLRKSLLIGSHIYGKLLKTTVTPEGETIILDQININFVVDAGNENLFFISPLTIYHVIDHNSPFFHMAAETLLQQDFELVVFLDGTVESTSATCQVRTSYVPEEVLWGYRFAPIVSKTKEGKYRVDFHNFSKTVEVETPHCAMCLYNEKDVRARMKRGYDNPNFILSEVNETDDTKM

This assay addresses ROMK (Kir1.1) channel (Homo sapiens (Human), UniProt P48048). Put plainly: Thallium Flux Assay. In kind it is cell-based. As for the experimental part:
A Thallium Flux Assay was performed on each of the final product compounds of the Examples. This assay has been described previously; see, e.g., PCT Published Application WO 2013/062900.
Molecule `CC1=C(N2CC[C@]3(CC[C@@H](NCc4ccc5c(c4)CCc4nnnn4-5)CC3)C2=O)COC1=O` [Example 51, (5r,8r)-8-(((4,5-dihydrotetrazolo[1,5-a]quinolin-7-yl)methyl)amino)-2-(4-methyl-5-oxo-2,5-dihydrofuran-3-yl)-2-azaspiro[4.5]decan-1-one] yielded an IC50 of 4.3 nM. In turn, `CC1=C(N2CC[C@]3(CC[C@H](N(C)[C@H](C)c4ccc(-n5cnnn5)nc4)CC3)C2=O)COC1=O` [Example 93] came in with an IC50 of 510 nM. `CN(Cc1ccc(-n2cnnn2)nn1)C1CCC2(CC1)CCN(C1=CC(=O)OC1)C2=O` (stereo not drawn) [Example 103] registered an IC50 of 87 nM.

Molecule `CC1=C(N2CC[C@]3(CC[C@@H](N(C)Cc4ccc(-n5cnnn5)nc4)CC3)C2=O)COC1=O` [Example 84] registered an IC50 of 740 nM. With `CC1=C(N2CC[C@]3(CC[C@H](N(C)[C@H](CO)c4ccc(-n5cnnn5)nc4)CC3)C2=O)COC1=O` [Example 85] the figure was 190 nM. With `CC1=C(N2CC[C@]3(CC[C@@H](NCc4ccc5c(c4)-c4nnnn4C5)CC3)C2=O)COC1=O` [Example 47, (5r,8r)-2-(4-methyl-5-oxo-2,5-dihydrofuran-3-yl)-8-[(5H-tetrazolo[5,1-a]isoindol-8-ylmethyl)amino]-2-azaspiro[4.5]decan-1-one] the figure was 550 nM. `CC1=C(N2CC[C@]3(CC[C@@H](N(C)Cc4ccc(-n5ncnn5)cc4)CC3)C2=O)COC1=O` [Example 109]: the IC50 is 3.4 nM.

As for `CC1=C(N2CC[C@]3(CC[C@](C)(NCc4ccc(-n5cnnn5)nn4)CC3)C2=O)COC1=O` [Example 42, (5s,8s)-8-methyl-2-(4-methyl-5-oxo-2,5-dihydrofuran-3-yl)-8-({[6-(1H-tetrazol-1-yl)pyridazin-3-yl]methyl}amino)-2-azaspiro[4.5]decan-1-one], the IC50 was found to be 70 nM. This IC50 is about 21-fold higher than that of the molecule before. With `CC1=C(N2CC[C@]3(CC[C@H](N(C)Cc4ccc(-n5ncnn5)nn4)CC3)C2=O)COC1=O` [Example 114] the figure was 430 nM. With `O=C1C=C(N2CC[C@]3(CC[C@@H](NCc4cnc(-n5cnnn5)cn4)CC3)C2=O)CO1` [Example 72, (5r,8r)-8-(((5-(1H-tetrazol-1-yl)pyrazin-2-yl)methyl)amino)-2-(5-oxo-2,5-dihydrofuran-3-yl)-2-azaspiro[4.5]decan-1-one] the figure was 340 nM; with `CC1=C(N2CC[C@]3(CC[C@@H](N[C@H](C)c4ccc5c(c4)Cn4nnnc4-5)CC3)C2=O)COC1=O` [Example 30, (5R,8r)-2-(4-methyl-5-oxo-2,5-dihydrofuran-3-yl)-8-{[(1R)-1-(5H-tetrazolo[5,1-a]isoindol-7-yl)ethyl]amino}-2-azaspiro[4.5]decan-1-one], 150 nM. The same measure for `CC1=C(N2CC[C@]3(CC[C@@H](N(C)Cc4ccc(-n5cnnn5)cn4)CC3)C2=O)COC1=O` [Example 88]: 7 nM.

`CC1=C(N2CC[C@]3(CC[C@H](N(CCO)Cc4ccc(-n5cnnn5)nc4)CC3)C2=O)COC1=O` [Example 131, (5s,8s)-8-[(2-hydroxyethyl) {[6-(1H-tetrazol-1-yl)pyridin-3-yl]methyl}amino]-2-(4-methyl-5-oxo-2,5-dihydrofuran-3-yl)-2-azaspiro[4.5]decan-1-one] returned an IC50 of 160 nM. This IC50 lies about 23-fold higher than the previous one. Turning to `CC1=C(N2CC[C@]3(CC[C@@H](N(C)[C@@H](CO)c4ccc(-n5cnnn5)nc4)CC3)C2=O)COC1=O` [Example 102], the IC50 was found to be 300 nM. With `CC1=C(N2CC[C@]3(CC[C@@](C)(N(C)Cc4cnc(-n5cnnn5)cn4)CC3)C2=O)COC1=O` [Example 129] the figure was 45 nM; with `CC1=C(N2CC[C@]3(CC[C@@H](N(C)[C@H](CO)c4ccc(-n5cnnn5)nc4)CC3)C2=O)COC1=O` [Example 86], 480 nM. With `CC1=C(N2CC[C@]3(CC[C@@H](N[C@H](C)c4ccc(-n5cnnn5)nn4)CC3)C2=O)COC1=O` [Example 15, (5R,8r)-2-(4-methyl-5-oxo-2,5-dihydrofuran-3-yl)-8-({(1R)-1-[6-(1H-tetrazol-1-yl)pyridazin-3-yl]ethyl}amino)-2-azaspiro[4.5]decan-1-one] the figure was 92 nM. The same measure for `CC1=C(N2CC[C@]3(CC[C@H](N[C@H](C)c4ccc5c(c4)CCc4nnnn4-5)CC3)C2=O)COC1=O` [Example 17, (5S,8s)-8-{[(1R)-1-(4,5-dihydrotetrazolo[1,5-a]quinolin-7-yl)ethyl]amino}-2-(4-methyl-5-oxo-2,5-dihydrofuran-3-yl)-2-azaspiro[4.5]decan-1-one]: 340 nM. `CC1=C(N2CC[C@]3(CC[C@@H](N(C)Cc4ccc5c(c4)Cn4nnnc4-5)CC3)C2=O)COC1=O` [Example 90] yielded an IC50 of 22 nM. The same measure for `CC1=C(N2CC[C@]3(CC[C@H](N(C)Cc4ccc(-n5cnnn5)cn4)CC3)C2=O)COC1=O` [Example 87]: 550 nM. The same measure for `CC1=C(N2CC[C@]3(CC[C@@H](NCc4cc5c(cc4C)-c4nnnn4C5)CC3)C2=O)COC1=O` [Example 61, (5r,8r)-2-(4-methyl-5-oxo-2,5-dihydrofuran-3-yl)-8-(((8-methyl-5H-tetrazolo[5,1-a]isoindol-7-yl)methyl)amino)-2-azaspiro[4.5]decan-1-one]: 23 nM.

As usually defined, the IC50 is the concentration that gives 50% inhibition. A high value points to weaker potency.
